According to PubChem BioAssay (NCI):
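Each compound was tested at five concentrations against cells in 96-well plates for 48 hours. Definition used: TGI = concentration required for complete inhibition of growth.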

Legend:
Experiment in all cases: NCI tumour cell line growth inhibition, 48 h
RXF 393 renal = system: RXF 393 renal
SNB-78 CNS = system: SNB-78 CNS
MALME-3M melanoma = system: MALME-3M melanoma
U251 CNS = system: U251 CNS
HCC-2998 colon = system: HCC-2998 colon
DMS 273 small cell lung = system: DMS 273 small cell lung
SK-MEL-2 melanoma = system: SK-MEL-2 melanoma
MOLT-4 leukemia = system: MOLT-4 leukemia
A549 NSCLC = system: A549 NSCLC
HT29 colon = system: HT29 colon
MCF7 breast = system: MCF7 breast
NCI-H226 lung = system: NCI-H226 lung
SK-MEL-5 melanoma = system: SK-MEL-5 melanoma
CCRF-CEM leukemia = system: CCRF-CEM leukemia
SF-268 CNS = system: SF-268 CNS
P388/ADR leukemia = system: P388/ADR leukemia
SN12C renal = system: SN12C renal
SK-OV-3 ovarian = system: SK-OV-3 ovarian
UACC-257 melanoma = system: UACC-257 melanoma
SW-620 colon = system: SW-620 colon
IGROV1 ovarian = system: IGROV1 ovarian
UACC-62 melanoma = system: UACC-62 melanoma
NCI-H522 lung = system: NCI-H522 lung
HL-60(TB) leukemia = system: HL-60(TB) leukemia
HOP-18 NSCLC = system: HOP-18 NSCLC
UO-31 renal = system: UO-31 renal
HCT-116 colon = system: HCT-116 colon
NCI/ADR-RES ovarian = system: NCI/ADR-RES ovarian
OVCAR-4 ovarian = system: OVCAR-4 ovarian
NCI-H460 lung = system: NCI-H460 lung
SN12K1 renal = system: SN12K1 renal
KM12 colon = system: KM12 colon
NCI-H23 lung = system: NCI-H23 lung
RPMI-8226 leukemia = system: RPMI-8226 leukemia
K-562 leukemia = system: K-562 leukemia
HCT-15 colon = system: HCT-15 colon
A498 renal = system: A498 renal
M19-MEL melanoma = system: M19-MEL melanoma
SNB-75 CNS = system: SNB-75 CNS
EKVX NSCLC = system: EKVX NSCLC
SNB-19 CNS = system: SNB-19 CNS
COLO 205 colon = system: COLO 205 colon
KM20L2 colon = system: KM20L2 colon
SF-295 CNS = system: SF-295 CNS
LOX IMVI melanoma = system: LOX IMVI melanoma
HOP-62 NSCLC = system: HOP-62 NSCLC
DMS 114 small cell lung = system: DMS 114 small cell lung
P388 leukemia = system: P388 leukemia
HOP-92 NSCLC = system: HOP-92 NSCLC
SF-539 CNS = system: SF-539 CNS
SK-MEL-28 melanoma = system: SK-MEL-28 melanoma
OVCAR-8 ovarian = system: OVCAR-8 ovarian
DLD-1 colon = system: DLD-1 colon
OVCAR-3 ovarian = system: OVCAR-3 ovarian
OVCAR-5 ovarian = system: OVCAR-5 ovarian
XF 498 CNS = system: XF 498 CNS

Measured: TGI

COc1cc(N=Nc2cccc(S(=O)(=O)O)c2)ccc1N=Nc1ccc(/C=C/c2ccc(-n3on3-c3ccc(/C=C/c4ccc(N=Nc5ccc(N=Nc6cccc(S(=O)(=O)O)c6)cc5OC)cc4S(=O)(=O)O)c(S(=O)(=O)O)c3)cc2S(=O)(=O)O)c(S(=O)(=O)O)c1
> 100 µM: all assays above
